Measurements: PubChem BioAssay (NCI)
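How tested: cells in 96-well plates exposed to compound for 48 hours at five concentrations. At the GI50, growth is halved. TGI is the concentration that stops growth completely.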

Legend:
Experiment in all cases: NCI-60 cell line screen, 48 h
IGROV1 ovarian = system: IGROV1 ovarian
ACHN renal = system: ACHN renal
SNB-19 CNS = system: SNB-19 CNS
COLO 205 colon = system: COLO 205 colon
SR leukemia = system: SR leukemia
HL-60(TB) leukemia = system: HL-60(TB) leukemia
UO-31 renal = system: UO-31 renal
HOP-92 NSCLC = system: HOP-92 NSCLC
RPMI-8226 leukemia = system: RPMI-8226 leukemia

Structure (SMILES)	GI50 (IGROV1 ovarian)	TGI (IGROV1 ovarian)	GI50 (ACHN renal)	TGI (ACHN renal)	GI50 (SNB-19 CNS)	TGI (SNB-19 CNS)	GI50 (COLO 205 colon)	TGI (COLO 205 colon)	GI50 (SR leukemia)	TGI (SR leukemia)	GI50 (HL-60(TB) leukemia)	TGI (HL-60(TB) leukemia)	GI50 (UO-31 renal)	TGI (UO-31 renal)	GI50 (HOP-92 NSCLC)	TGI (HOP-92 NSCLC)	GI50 (RPMI-8226 leukemia)	TGI (RPMI-8226 leukemia)
CC(C)(C)OC(=O)NCCCCCCCn1c2c(c3ccccc3c1=O)C(=O)c1ccccc1-2	26.9 µM	> 100 µM	27.1 µM	90.4 µM	32.5 µM	> 100 µM	63.7 µM	> 100 µM	4.95 µM	> 100 µM	16400 nM	40.5 µM	25.6 µM	> 100 µM	15 µM	37.1 µM		
O=C(N[C@@H](C[Se][Se]C[C@H](NC(=O)c1ccc(Br)cc1F)C(=O)O)C(=O)O)c1ccc(Br)cc1F	> 100 µM	> 100 µM	> 100 µM	> 100 µM	> 100 µM	> 100 µM	> 100 µM	> 100 µM	95.4 µM	> 100 µM	> 100000 nM	> 100 µM	> 100 µM	> 100 µM	> 100 µM	> 100 µM	> 100000 nM	> 100 µM
C=C1C(O)CC[C@]2(C)C1C1OC(C)(C)O[C@]13CC(=O)C(C)=C([C@H]1OC(C)(C)OC12)C3(C)C (some centres not stated)		> 100 µM		> 100 µM		> 100 µM		> 100 µM		> 100 µM		> 100 µM		> 100 µM				> 100 µM
O=c1cc(/C=C/c2ccccc2)[nH]c2cc3c(cc12)OCO3		19.8 µM		28.3 µM		13.4 µM		6.43 µM						20.9 µM		14.8 µM		3.18 µM
c1ccc2[nH]c(-c3ccc(Nc4nc(N5CCCCC5)nc(N5CCOCC5)n4)cc3)nc2c1			3.14 µM	> 100 µM	3.73 µM	81.9 µM	1.86 µM	3.92 µM	0.73 µM	5.73 µM	2420 nM	5.8 µM	2 µM	5.14 µM	1.99 µM	4.32 µM	2230 nM	6.58 µM
Cc1ccc(NC(=O)c2cc(S(=O)(=O)N3C(=O)NC(=O)NS3(=O)=O)c(S)cc2Cl)cc1	26.1 µM	90.4 µM	26.3 µM	83.8 µM	69.5 µM	> 100 µM	39.8 µM	> 100 µM					27.8 µM	> 100 µM	15.6 µM	54.7 µM	22000 nM	73.6 µM
CC(=O)c1ccc(O)c(CN(C2CCCCC2)C2CCCCC2)c1O		> 100 µM		> 100 µM		> 100 µM		> 100 µM						> 100 µM		> 100 µM		> 100 µM
CCCCCCCCCCCCCCCC[N+]1(C)CCOCC1			2.93 µM	13.9 µM			1.15 µM	2.42 µM	1.28 µM	4.66 µM	1310 nM	3.35 µM	13.4 µM	31.6 µM	0.499 µM	2.64 µM	1300 nM	4.06 µM
Nc1ncnc2c1ncn2CC(O)CO (configuration not stated)		> 100 µM				> 100 µM		> 100 µM				> 100 µM		> 100 µM		> 100 µM		> 100 µM
